In patent publication US8163929B2, “Dihydropyridone amides as P2X7 modulators” (Roche Palo Alto LLC, priority 2008, dated 2012):

Biological target: T1, P2X7 (UniProt Q99572)
T1 sequence (Q99572 1-595): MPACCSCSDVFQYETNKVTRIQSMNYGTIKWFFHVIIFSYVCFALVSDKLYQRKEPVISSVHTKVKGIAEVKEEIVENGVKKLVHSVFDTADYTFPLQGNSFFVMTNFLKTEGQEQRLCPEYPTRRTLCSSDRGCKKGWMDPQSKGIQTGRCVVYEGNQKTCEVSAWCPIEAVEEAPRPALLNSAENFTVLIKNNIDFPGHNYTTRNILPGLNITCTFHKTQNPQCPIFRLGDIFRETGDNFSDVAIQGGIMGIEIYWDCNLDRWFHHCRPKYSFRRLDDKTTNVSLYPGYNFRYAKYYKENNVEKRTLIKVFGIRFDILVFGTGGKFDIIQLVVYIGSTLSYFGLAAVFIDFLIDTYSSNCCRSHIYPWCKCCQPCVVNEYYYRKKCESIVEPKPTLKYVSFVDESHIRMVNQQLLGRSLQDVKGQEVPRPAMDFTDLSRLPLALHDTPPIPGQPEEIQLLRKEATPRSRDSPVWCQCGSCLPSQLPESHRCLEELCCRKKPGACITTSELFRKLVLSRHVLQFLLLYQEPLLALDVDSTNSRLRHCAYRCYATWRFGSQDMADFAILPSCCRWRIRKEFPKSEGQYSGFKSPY
Experiment: P2X7 activity of Table 1
Format: cell-based
Settings: pIC50 values for P2X7
Method: Stock solutions of compounds were prepared from powders as a 10 mM DMSO stock solution. These solutions were stored at RT during the two week period of these experiments to prevent freeze-thaw of the DMSO stocks. The DMSO stocks were added to the appropriate assay buffer at a concentration of 10 μM, and then diluted serially to the final concentrations that were tested. […] The aqueous solutions of compounds as well as ATP (Sigma A7699) and BzATP (Sigma B6396) were prepared fresh for each day of experiment.
1321N1 cells stably expressing the full length human P2X7 gene (1321N1-hP2X7) and HEK293 cells stably expressing the full length rat P2X7 gene (HEK293-rP2X7) were obtained from the Roche Cell Culture Facility. 1321N1-hP2X7 cells were grown in Dulbecco's Modified Eagle's Medium (DMEM) high glucose supplemented with 10% FBS and 250 μg/mL G418. HEK293-rP2X7 cells were grown in DMEM/F-12 supplemented with 10% FBS, 1 mM CaCl2, 2 mM MgCl2, 2 mM L-Glutamine and 500 μg/ml G418. Cells were split such that they never became >70% confluent.
On the day prior to the experiment, 1321N1-hP2X7 or HEK293-rP2X7 cells were released into suspension with calcium-free PBS+Versene and washed by centrifugation with calcium-free PBS to remove the Versene. Cells were resuspended in growth medium at a density of 2.5×10^5 cells/mL and seeded into black walled, clear bottom 96 well plates (50,000 cells/well) approximately 18 hr prior to intracellular calcium flux experiments.
On the day of the experiment, plates were washed with FLIPR buffer (calcium- and magnesium-free Hank's Balanced Salt Solution (HBSS) supplemented with 10 mM Hepes, 2.5 mM probenecid and 2 mM calcium chloride) using a BIO-TEK 96 channel plate washer and incubated with […] fluo-3 dye at 37° C. for one hr. The dye was then removed by plate washing and the cells were allowed to equilibrate for 20 min at room temperature with antagonist or vehicle (FLIPR buffer). Agonist (100 μM BzATP final concentration for hP2X7; 5 μM BzATP final concentration or rP2X7) was added online with the FLIPR and fluorescence measurements made at 1 sec intervals for 60 sec followed by 3 sec intervals for a further 4 min (5 min total). A final addition of 5 μM ionomycin was made and the maximal BzATP-evoked fluorescence normalized to the maximal ionomycin-evoked fluorescence.

In the case of Cc1ccc(N2CCCC2)cc1NC(=O)C1=CNC(=O)C[C@H]1c1ccc(F)cc1 [Compound 46, (S)-4-(4-Fluoro-phenyl)-6-oxo-1,4,5,6-tetrahydro-pyridine-3-carboxylic acid (2-methyl-5-pyrrolidin-1-yl-phenyl)-amide], the pIC50 is reported as 7.873.

Cc1ccc(N2CCOCC2)cc1NC(=O)C1=CNC(=O)C[C@H]1c1ccc(F)cc1 [Compound 47, (S)-4-(4-Fluoro-phenyl)-6-oxo-1,4,5,6-tetrahydro-pyridine-3-carboxylic acid (2-methyl-5-morpholin-4-yl-phenyl)-amide] showed a pIC50 of 6.3.

COCCn1c(C)nnc1-c1ccc(C)c(NC(=O)C2=CNC(=O)C[C@H]2c2ccc(F)cc2)c1 [Compound 48, (S)-4-(4-Fluoro-phenyl)-6-oxo-1,4,5,6-tetrahydro-pyridine-3-carboxylic acid {5-[4-(2-methoxy-ethyl)-5-methyl-4H-[1,2,4]triazol-3-yl]-2-methyl-phenyl}-amide] gave a pIC50 of 5.86.

In the case of Cc1cn(-c2ccc(C)c(NC(=O)C3=CNC(=O)C[C@H]3c3ccc(F)cc3)c2)cn1 [Compound 49, (S)-4-(4-Fluoro-phenyl)-6-oxo-1,4,5,6-tetrahydro-pyridine-3-carboxylic acid [2-methyl-5-(4-methyl-imidazol-1-yl)-phenyl]-amide], the pIC50 is reported as 6.855.

CCOC(=O)Cn1nc(-c2ccc(C)c(NC(=O)C3=CNC(=O)C[C@H]3c3ccc(F)cc3)c2)cc1C [Compound 50, [3-(3-{[(S)-4-(4-Fluoro-phenyl)-6-oxo-1,4,5,6-tetrahydro-pyridine-3-carbonyl]-amino}-4-methyl-phenyl)-5-methyl-pyrazol-1-yl]-acetic acid ethyl ester] was tested, and the pIC50 was 7.145.

With Cc1ccc(-c2ncccn2)cc1NC(=O)C1=CNC(=O)C[C@H]1c1ccc(F)cc1 [Compound 51, (S)-4-(4-Fluoro-phenyl)-6-oxo-1,4,5,6-tetrahydro-pyridine-3-carboxylic acid (2-methyl-5-pyrimidin-2-yl-phenyl)-amide] the pIC50 was 7.87.

Work on Cc1ccc(-c2cncnc2)cc1NC(=O)C1=CNC(=O)C[C@H]1c1ccc(F)cc1 [Compound 52, (S)-4-(4-Fluoro-phenyl)-6-oxo-1,4,5,6-tetrahydro-pyridine-3-carboxylic acid (2-methyl-5-pyrimidin-5-yl-phenyl)-amide] yielded a pIC50 of 6.425.

Cc1nccc(-c2ccc(C)c(NC(=O)C3=CNC(=O)C[C@H]3c3ccc(F)cc3)c2)n1 [Compound 53, (S)-4-(4-Fluoro-phenyl)-6-oxo-1,4,5,6-tetrahydro-pyridine-3-carboxylic acid [2-methyl-5-(2-methyl-pyrimidin-4-yl)-phenyl]-amide] was tested, and the pIC50 was 7.325.

Cc1cc(-c2ccc(C)c(NC(=O)C3=CNC(=O)C[C@H]3c3ccc(F)cc3)c2)ccn1 [Compound 54, (S)-4-(4-Fluoro-phenyl)-6-oxo-1,4,5,6-tetrahydro-pyridine-3-carboxylic acid [2-methyl-5-(2-methyl-pyridin-4-yl)-phenyl]-amide] gave a pIC50 of 7.045.

Cc1ccc(-c2c(Cl)cn[nH]c2=O)cc1NC(=O)C1=CNC(=O)C[C@H]1c1ccc(F)cc1 [Compound 55, (S)-4-(4-Fluoro-phenyl)-6-oxo-1,4,5,6-tetrahydro-pyridine-3-carboxylic acid [5-(5-chloro-3-oxo-2,3-dihydro-pyridazin-4-yl)-2-methyl-phenyl]-amide] gave a pIC50 of 7.54.

Cc1ccc(-c2ccn[nH]c2=O)cc1NC(=O)C1=CNC(=O)C[C@H]1c1ccc(F)cc1 [Compound 56, (S)-4-(4-Fluoro-phenyl)-6-oxo-1,4,5,6-tetrahydro-pyridine-3-carboxylic acid [2-methyl-5-(3-oxo-2,3-dihydro-pyridazin-4-yl)-phenyl]-amide] was tested, and the pIC50 was 8.256.

Cc1ccc(-c2cscn2)cc1NC(=O)C1=CNC(=O)C[C@H]1c1ccc(F)cc1 [Compound 57, (S)-4-(4-Fluoro-phenyl)-6-oxo-1,4,5,6-tetrahydro-pyridine-3-carboxylic acid (2-methyl-5-thiazol-4-yl-phenyl)-amide] showed a pIC50 of 8.06.

Cc1nc(-c2ccc(C)c(NC(=O)C3=CNC(=O)C[C@H]3c3ccc(F)cc3)c2)cs1 [Compound 58, (S)-4-(4-Fluoro-phenyl)-6-oxo-1,4,5,6-tetrahydro-pyridine-3-carboxylic acid [2-methyl-5-(2-methyl-thiazol-4-yl)-phenyl]-amide] showed a pIC50 of 7.87.

With Cc1ccc(-c2ccncc2)cc1NC(=O)C1=CNC(=O)C[C@H]1c1ccc(F)cc1 [Compound 59, (S)-4-(4-Fluoro-phenyl)-6-oxo-1,4,5,6-tetrahydro-pyridine-3-carboxylic acid (2-methyl-5-pyridin-4-yl-phenyl)-amide] the pIC50 was 7.22.

With CCn1c(C)nnc1-c1ccc(C)c(NC(=O)C2=CNC(=O)C[C@H]2c2ccc(F)cc2)c1 [Compound 60, (S)-4-(4-Fluoro-phenyl)-6-oxo-1,4,5,6-tetrahydro-pyridine-3-carboxylic acid [5-(4-ethyl-5-methyl-4H-[1,2,4]triazol-3-yl)-2-methyl-phenyl]-amide] the pIC50 was 6.535.

In the case of Cc1ccc(-c2cc(C)n(C[C@H](O)CO)n2)cc1NC(=O)C1=CN(C)C(=O)C[C@H]1c1ccc(F)cc1 [Compound 61, (S)-4-(4-Fluoro-phenyl)-1-methyl-6-oxo-1,4,5,6-tetrahydro-pyridine-3-carboxylic acid {5-[1-((S)-2,3-dihydroxy-propyl)-5-methyl-1H-pyrazol-3-yl]-2-methyl-phenyl}-amide], the pIC50 is reported as 7.255.

For Cc1ccc(-c2cc(C3CC3)[nH]n2)cc1NC(=O)C1=CNC(=O)C[C@H]1c1ccc(F)cc1 [Compound 62, (S)-4-(4-Fluoro-phenyl)-6-oxo-1,4,5,6-tetrahydro-pyridine-3-carboxylic acid [5-(5-cyclopropyl-1H-pyrazol-3-yl)-2-methyl-phenyl]-amide], the pIC50 was 6.935.

Cc1ccc(-c2ccn(C)n2)cc1NC(=O)C1=CNC(=O)C[C@H]1c1cccc(F)c1 [Compound 63, (S)-4-(3-Fluoro-phenyl)-6-oxo-1,4,5,6-tetrahydro-pyridine-3-carboxylic acid [2-methyl-5-(1-methyl-1H-pyrazol-3-yl)-phenyl]-amide] showed a pIC50 of 7.965.

In the case of Cc1ccc(-c2cc(C)n(C[C@@H](O)CO)n2)cc1NC(=O)C1=CN(C)C(=O)C[C@H]1c1ccc(F)cc1 [Compound 64, (S)-4-(4-Fluoro-phenyl)-1-methyl-6-oxo-1,4,5,6-tetrahydro-pyridine-3-carboxylic acid {5-[1-((R)-2,3-dihydroxy-propyl)-5-methyl-1H-pyrazol-3-yl]-2-methyl-phenyl}-amide], the pIC50 is reported as 7.585.

Cc1ccc(-c2ccn(C)n2)cc1NC(=O)C1=CNC(=O)C[C@H]1c1ccc(F)cc1 [Compound 65, (S)-4-(4-Fluoro-phenyl)-6-oxo-1,4,5,6-tetrahydro-pyridine-3-carboxylic acid [2-methyl-5-(1-methyl-1H-pyrazol-3-yl)-phenyl]-amide] gave a pIC50 of 7.705.

Compound Cc1ccc(-n2cnnc2)cc1NC(=O)C1=CNC(=O)C[C@H]1c1ccc(F)cc1 [Compound 66, (S)-4-(4-Fluoro-phenyl)-6-oxo-1,4,5,6-tetrahydro-pyridine-3-carboxylic acid (2-methyl-5-[1,2,4]triazol-4-yl-phenyl)-amide] has a pIC50 of 5.55.

Work on CCn1c(=O)cnn(-c2ccc(C)c(NC(=O)C3=CNC(=O)C[C@H]3c3ccc(F)cc3)c2)c1=O [Compound 67, (S)-4-(4-Fluoro-phenyl)-6-oxo-1,4,5,6-tetrahydro-pyridine-3-carboxylic acid [5-(4-ethyl-3,5-dioxo-4,5-dihydro-3H-[1,2,4]triazin-2-yl)-2-methyl-phenyl]-amide] yielded a pIC50 of 7.575.
